Read-outs that look alike come from different tables or passages of the source.

The subject of data set [1] is HIV-1LAI. As to the kind of experiment: HIV antiviral assay, p24 reduction in MT-2 cells. Conditions: for Selectivity index: CC50/EC50, HIV-1 in MT-2 cells.
The nature of data set [2]: Cytotoxicity in HFF cells (HSV-2 table). The conditions noted are these: human, HFF cells.
The test system of data set [3] is HSV-2. Nature of the data set: HSV-2 plaque reduction assay in HFF cells. It is filed as cell-based. The conditions noted are these: for Selectivity index: HSV-2 in HFF cells; for EC50: plaque reduction, 3 days, read-out: EC50 (HSV-2 antiviral activity in HFF cells). The protocol: Antiviral assay. […] Plates were allowed to incubate for 37° C. for 1 hour. […] Plates were incubated at 37° C. for 3 days and monolayers were stained with crystal violet. Plaques were counted and results are expressed as μM concentration of drug which reduced plaques by 50% versus control plates without drug. (Richards et al, Antiviral Res. 2:27, 1982)

Data set [4] is described as follows: Cytotoxicity (reduction of cell proliferation) in HEK 293 cells. It is filed as cell-based. Conditions: human, read-out: CC50 (50% reduction of cell proliferation). The source says:
(§1) Assay. DNA PCR in HEK 293 cells infected with HPV-11, EC50, effective concentration 50%; CC50, 50% reduction of cell proliferation. DNA PCR by the methods reported by Chiang et al, Proc Natl Acad Sci USA. 1992. 89(13):5799-803 and Taylor and Morgan, Virology. 2003. 10; 315(1):103-9.

The subject of data set [5] is HPV-11. Nature of the data set: HPV-11 antiviral assay, DNA PCR in HEK 293 cells. Conditions: for Selectivity index: HPV-11 in HEK 293 cells. In kind it is cell-based.
From the text: as §1

For data set [6], the system named is Me180 (68) cervical cancer cells. As to the kind of experiment: Cell proliferation assay (neutral red), Me180 cervical cancer cells. In kind it is cell-based. Conditions: Homo sapiens, ME-180, 120 h, read-out: Cytotoxicity, CC50, Cervical Cancer Cells Me180 (68). As to the method:
(§2) Method Cell Proliferation Assays: The various human fibroblast and human cervical cancer cell lines were plated at 5×10^3 per well in 96 well plates using media with 10% fetal bovine serum added and incubated for about 24 hr. Ten mM stock solutions of the compounds were prepared in 10% DMSO in distilled water. Serial drug dilutions were made in media containing 2% FBS to give a final […] concentration, added to the wells, and incubated at 37° C. for 5 days. Cytotoxicity was measured by neutral red reduction, as known in the art.

Data set [7] is described as follows: Cell proliferation assay (neutral red), normal human fibroblasts. In kind it is cell-based. Conditions: read-out: Cytotoxicity, CC50, Normal cells Human fibroblasts. The protocol: as §2
For data set [8], the system named is MT-2 cells (human T cell leukemia). As to the kind of experiment: Cytotoxicity in MT-2 cells (flow cytometry, propidium iodide). It is filed as cell-based. Conditions: 72 hrs. As to the method: Method of cytotoxicity determination. MT-2 cells were incubated with drug for 72 hrs and harvested. Flow count beads (Beckman Coulter, Miami, Fla.) were added to the cell suspension followed by propidium iodide staining and analysis using flow cytometer and the 50% cytotoxic concentration (CC50) was calculated from the cell counts and viability.
Method cytotoxicity determination. MT-2 cells were incubated with drug for 72 hrs and harvested. Flow count beads (Beckman Coulter, Miami, Fla.) were added to the cell suspension followed by propidium iodide staining and analysis using flow cytometer and the 50% cytotoxic concentration (CC50) was calculated from the cell counts and viability.

Data set [9] has as its system HFF cells. As to the kind of experiment: Cytotoxicity in HFF cells (HSV-2 table). Conditions: read-out: CC50 (HFF cells); Table 10.
Data set [10] concerns Caski (16) cervical cancer cells. Nature of the data set: Cell proliferation assay (neutral red), Caski cervical cancer cells. It is filed as cell-based. The conditions noted are these: Homo sapiens, Ca-Ski, 120 h, read-out: Cytotoxicity, CC50, Cervical Cancer Cells Caski (16). As to the method: as §2
Data set [11] deals with HeLa (18) cervical cancer cells. Nature of the data set: Cell proliferation assay (neutral red), HeLa cervical cancer cells. In kind it is cell-based. The conditions noted are these: Homo sapiens, 120 h, read-out: Cytotoxicity, CC50, Cervical Cancer Cells HeLa (18). As to the method:
as §2

The mark [12] stands for this setting: Human alphaherpesvirus 2, HFF, 72 h.

`CCCCCCCCCCCCCCCCCCOCCOP(=O)(CO[C@H](CO)Cn1ccc(N)nc1=O)OCc1ccccc1` (stereo partly drawn) [Bn-ODE-(S)-HPMPC, benzyl octadecyloxyethyl 1-(S)-[(3-hydroxy-2-phosphonomethoxy)propyl]cytosine]: the Selectivity index in [1] was 6.7; in data set [3], over 48. The compound further registered a CC50 in data set [2] of 4800 nM. Further, in [3] (setting [12]), the EC50 was under 100 nM.

Consider `CCCCCCCCCCCCCCCCCCOCCOP(=O)(COCCn1cnc2c(N)ncnc21)OCc1ccccc1` (centres unmarked) [Bn-ODE-PMEA, benzyl octadecyloxyethyl 9-[2-(phosphonomethoxy)ethyl]adenine], for which the CC50 in data set [4] is over 100000 nM.

On to `CCCCCCCCCCCCCCCCCCOCCOP(=O)(CO[C@H](CO)Cn1cnc2c(N)ncnc21)OCc1ccccc1` (stereo partly drawn) [Bn-ODE-(S)-HPMPA, benzyl octadecyloxyethyl 9-(S)-[3-hydroxy-2-(phosphonomethoxy)propyl]adenine], for which the Selectivity index in [1] is 17.7; in data set [5], over 370; in data set [3], over 52. Moreover, the CC50 was determined as 5200 nM in data set [2] and 210 ± 70 nM in [6] (5 days, neutral red). In data set [3] (setting [12]), the EC50 was under 100 nM. The CC50 at 5 days in data set [7] (normal human fibroblasts (HFF)) is 5200 ± 3900 nM.

Take `CCCCCCCCCCCCCCCCCCOCCOP(=O)(COCCn1cnc2c(=O)[nH]c(N)nc21)OCc1ccccc1` (centres unmarked) [Bn-ODE-PMEG slow, benzyl octadecyloxyethyl 9-(2-phosphonomethoxyethyl)guanine]: the CC50 in data set [8] (Table 7, read-out: CC50, 50% Cytotoxic concentration, MT2 cells T cell leukemia) is under 10 nM; in data set [8] (Table 8, read-out: CC50 (MT-2 cells)), under 10 nM. Also, the EC50 in data set [1] (read-out: EC50 (HIV antiviral activity in MT-2 cells), p24 reduction, four days after infection) is under 0.01 nM.

In the case of `CCCCCCCCCCCCCCCCCCOCCOP(=O)(COCCn1cnc2c(=O)[nH]c(N)nc21)OCc1ccccc1` (centres unmarked) [Bn-ODE-PMEG fast, benzyl octadecyloxyethyl 9-(2-phosphonomethoxyethyl)guanine], in data set [9], the CC50 was over 4000 nM. Besides, the concentration for a half-maximal effect (EC50) in [3] is under 100 nM.

In the case of `CCCCCCCCCCCCCCCCCCOCCOP(=O)(COCCn1cnc2c(=O)[nH]c(N)nc21)OCc1ccccc1` (racemic) [Bn-ODE-PMEG, benzyl octadecyloxyethyl 9-[2-(phosphonomethoxy)ethyl]guanine], the CC50 in [10] was 15 ± 7 nM; in [11] it was 310 ± 110 nM; in data set [4] it was over 100000 nM; in data set [6] it was 31 ± 20 nM. For the same compound, the EC50 is 660 nM in [5] (HEK293, DNA PCR in HEK 293 cells infected with HPV-11) and under 1000 nM in [3] (setting [12]). Also, the figures for the Selectivity index in [5] and in data set [3] were over 151 and over 10, respectively. In addition, in data set [7], the CC50 at 5 days was 15000 ± 1500 nM.
